{"source": "patent US11299518B2", "about": "“Fusion respiratory syncytial virus inhibitors and use thereof” (priority 2016, dated 2022)", "key": {"RSV [1]": {"system": "RSV", "details": "DeVincenzo et al., 2014; cited from earlier work"}, "[2]": {"assay": "CD spectroscopy, percentage of helicity", "format": "physicochemical", "details": "CD at 222 nm, 10 mM phosphate buffer pH 7.5, 50 μM peptide, 25° C.", "procedure,_shortened": "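CD spectra were recorded at 25 °C on 50 μM peptide in 10 mM phosphate buffer, pH 7.5, from 180 to 260 nm, averaged over three scans and buffer-subtracted. Percent helicity was calculated from molar ellipticity at 222 nm, normalized to residue number and peptide concentration.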"}, "[3]": {"system": "recombinant green fluorescent protein (GFP)-expressing RSV virus (strain A2)", "assay": "HRSV-eGFP inhibition assay (cellular viral fusion assay, A549 cells, flow cytometry)", "format": "cell-based", "protocol": "The inhibitory activity of the peptides of the invention was assessed in a cellular viral fusion assay as compared to comparative peptides as follows. A549 cells were infected with a recombinant green fluorescent protein (GFP)-expressing RSV virus (strain A2) obtained as described below and in Hallak et al., 2000, Virology, 271:264-275, and the inhibitory activity of the peptides was quantified by flow cytometry.\nFollowing rapid thawing of the frozen eGFP encoding RSV virus at […], the virus was vortexed for 2 min, and pipetted up and down to break aggregates. Serial 4-fold dilutions of inhibitors were prepared in glass tubes and mixed with a volume of virus required to achieve approximately 50% of infection in 200 μl of media containing 2% of FCS. The resulting mixture was added to 24-well plates containing A549 cells. Cells were incubated for 2 hours at 37° C., the media was replaced, and cells were incubated for an additional 24 hours. Cells were treated with 300 μl of trypsin for 10 min at 37° C., and the detached cells were diluted in 1 ml of culture medium. Following centrifugation at 1′700 rpm, the pellet was resuspended in 300 μl of PBS+1% SBF (V/V) and GFP positive cells were counted by FACS analysis."}, "chymotrypsin": {"target": "T1, chymotrypsin (Bos taurus, UniProt P00766)", "T1 construct": "purchased Thermo Fisher Scientific", "assay": "Proteolytic stability assay, chymotrypsin", "format": "in vitro ADME", "details": "for half-life at 2.9 µM: chymotrypsin (isolated protease)", "protocol": "(§1) The compounds according to the invention are tested for their stability in a proteolytic stability assay as described below which is an important parameter to assess for the development of peptide therapeutics. Peptides of the invention 4bb, 4ca, 4a and their unstapled comparative peptide 4, as well as both SAH-RSVFBD isomers were treated with chymotrypsin and trypsin, and analysed by LC/MS to quantify the reaction products over time.\n(§2) In vitro proteolytic degradation was measured via LC-MS using an Agilent Infinity 1280 UHPLC system coupled to an Agilent quadruple-time-of-flight (QTOF) 6530 with an Agilent Jet Stream electrospray ionisation (AJS ESI) source (all Agilent Technologies, Waldbronn, Germany). 5 μl of digested sample were injected onto a C18 column (Zorbax Eclipse Plus RRHD, 1.8 μm, 2.1*100 mm, Agilent Technologies, Waldbronn, Germany) equilibrated with solvent A and eluted with a flow rate of 0.4 ml/min over a 5-95% gradient of solvent B in 5 minutes, followed by 1.5 minutes at 95% and 0.5 minutes post-time where solvent A was 95% water, 5% acetonitrile with 0.2% formic acid and solvent B was 5% water, 95% acetonitrile with 0.2% formic acid. The AJS ESI source was operated with a capillary voltage of 4000V and a nozzle voltage of 600V with a drying gas temperature of 325° C. and flow rate of 10 l/min, nebulising gas pressure of 20 psi, and a sheath gas temperature of 300° C. and flow rate of 11l/min. Mass spectra were acquired in the positive ion mode from 100-3200 m/z at a rate of 1 scan per second in extended dynamic range (2 GHz) mode. The fragmentor, skimmer and octopole Radio Frequency voltages were set to 200, 60 and 750 V respectively. Data were acquired and analysed with Agilent MassHunter Workstation (version B.05).\n(§3) Peptide digestion was performed as it follows: 10 μl of peptide at 0.29 mM in 50/50 acetonitrile/water were dissolved in 990 μl 100 mM Tris-HCl, pH 8.0 with 10 mM CaCl2. Following measurement of the undigested (to) sample, 10 μl of chymotrypsin at 50 μg/ml in 100 mM Tris-HCl, pH 8.0 with 10 mM CaCl2 were added and the sample was vortexed and placed immediately in the autosampler, set to 25° C. Trypsin digestion was performed as with chymotrypsin except that the buffer was in 50 mM Tris-HCl, pH8. Chymotrypsin and trypsin were purchased from Thermo Fisher Scientific.\n(§4) The level of intact peptide was quantified by serial injection over time. Integration of the intact peptide compound chromatogram was performed using the Agilent Molecular Feature Extraction (MFE) algorithm. A plot of the intact peptide MFE peak area over time gave an exponential decay curve, from which the half-life was determined using MatLab […]."}, "trypsin": {"system": "trypsin", "assay": "Proteolytic stability assay, trypsin", "format": "in vitro ADME", "details": "trypsin (isolated protease), pH 8, b240; read-out: half-life against trypsin (converted)", "protocol": "as §1, §2, §3, §4"}, "rHRSV-Luc": {"system": "rHRSV-Luc", "assay": "In vivo rHRSV-Luc infection of mice, lung histological analysis", "set-up": "species or system BALB/c mice", "details": "intranasal peptide, day 7 pi", "protocol": "The efficacy of peptides of the invention is tested in the following model of rHRSV infection.\nFemale BALB/c mice around 8 weeks of age are purchased. Mice are bred in a pathogen-free animal facility. For infection experiments, mice will be housed in cages inside stainless steel isolation cabinets that are ventilated under negative pressure with high-efficiency particulate air-filtered air. Female BALB/c mice (n=5 per group) are anesthetized by a mixture of ketamine and xylazine (1 and 0.2 mg per mouse, respectively) and infected by intranasal inoculation with 50 μl of PBS containing 6.10^4 p.f.u. of rHRSV-Luc (Luc-encoding virus that enables direct visualization of RSV replication in living mice). Peptides of the invention are administered intranasally to the mice infected or uninfected with RSV-Luc, on day 0, 2 and 4 post-infection. Body weight and temperature is monitored at days 3-10. In vivo imaging is performed each two days on anesthetized mice. At day 8, mice are killed and the safety of the treatment is investigated by a complete toxicopathological evaluation of treated mice (histologic analysis of lungs with sections of each lobe, turbinates, heart, spleen, liver, kidneys).\nAt day 7 pi, a time corresponding to the end of the infection in mice, the animals were sacrificed and the lungs were collected in order to perform a histological analysis. […]"}, "[4]": {"assay": "Proteolytic stability assay, trypsin", "format": "in vitro ADME", "details": "trypsin (isolated protease), pH 8; 50 mM Tris-HCl pH8, 25° C., LC-MS; read-out: t1/2 (min) Trypsin", "protocol": "as §1, §2, §3, §4"}, "RSV [5]": {"system": "RSV", "details": "Lambert et al., 1996; read-out: EC50 reported previously; cited from earlier work"}}, "note": "Read-outs that look alike come from different tables or passages of the source. Bridge positions count the residues as written; N and C are the ends. Square brackets hold non-standard residues; d marks the D form. Peptide text beside a SMILES is read from it. R8 = C=CCCCCCC[C@@](C)(N)C(=O)O; R5 = C=CCCC[C@@](C)(N)C(=O)O; S5 = C=CCCC[C@](C)(N)C(=O)O"}
{"compound": "Cc1cn2nc([C@@H]3CCCCN3C(=O)c3cc(Cl)ccc3NS(C)(=O)=O)cc2nc1N1CC[C@H](N)C1", "note": "[GS-5806]", "values": [{"measurement": "EC50", "setting": "RSV [1]", "value": 0.4, "unit": "nM"}]}
{"compound": "CC[C@H](C)[C@H](NC(=O)[C@H](Cc1ccccc1)NC(=O)[C@]1(C)CCCC=CCCC[C@](C)(NC(=O)[C@@H](NC(=O)[C@H](CCCCN)NC(=O)[C@H](CCC(=O)O)NC(C)=O)[C@@H](C)CC)C(=O)N[C@@H](CCC(N)=O)C(=O)N[C@@H](CO)C(=O)N[C@@H](CC(C)C)C(=O)N1)C(=O)N[C@@H](CCCNC(=N)N)C(=O)N[C@]1(C)CCCCCCC=CCCC[C@@](C)(C(=O)N[C@H](C(N)=O)C(C)C)NC(=O)[C@H](Cc2c[nH]cn2)NC(=O)[C@H](CC(C)C)NC(=O)[C@H](CC(C)C)NC(=O)[C@H](CCC(=O)O)NC(=O)[C@H](CC(=O)O)NC(=O)[C@H](CO)NC1=O", "note": "[Peptide 4bf, EKI X500 QSL X504 FIR 8508 SDELLH X515V, reference compound] (Ac-EKI[S5]QSL[S5]FIR[R8]SDELLH[S5]V-NH2; staple 4-8, 12-19 (inferred))", "values": [{"measurement": "% helicity", "setting": "[2]", "value": ">100", "unit": "%"}, {"measurement": "inhibitory activity in cellular viral fusion assay", "setting": "[3]", "value": "inactive"}]}
{"compound": "CC[C@H](C)[C@@H]1NC(=O)[C@H](Cc2ccccc2)NC(=O)[C@@](C)(NC(=O)[C@H](CC(C)C)NC(=O)[C@H](CO)NC(=O)[C@]2(C)CCCC=CCCC[C@@](C)(NC(=O)[C@H](CCC(=O)O)NC(C)=O)C(=O)N[C@@H]([C@@H](C)CC)C(=O)N[C@@H](CC(N)=O)C(=O)N2)CCCC=CCCC[C@@](C)(C(=O)N[C@@H](CO)C(=O)N[C@@H](CC(=O)O)C(=O)N[C@@H](CCC(=O)O)C(=O)N[C@@H](CC(C)C)C(=O)N[C@@H](CC(C)C)C(=O)N[C@@H](Cc2c[nH]cn2)C(=O)N[C@@H](CC(N)=O)C(=O)N[C@H](C(N)=O)C(C)C)NC(=O)[C@H](CCCNC(=N)N)NC1=O", "note": "[Peptide 4ca] (Ac-E[R5]IN[S5]SL[S5]FIR[S5]SDELLHNV-NH2; staple 2-5, 8-12)", "values": [{"measurement": "% helicity", "setting": "[2]", "value": ">100", "unit": "%"}, {"measurement": "half-life at 2.9 µM", "setting": "chymotrypsin; pH 8, b240, read-out: half-life against chymotrypsin (converted)", "value": 10800, "unit": "min"}, {"measurement": "half-life at 2.9 µM", "setting": "trypsin", "value": 38, "unit": "h"}, {"measurement": "histological changes in the lung parenchyma, mock versus peptide inoculated animals (toxicity)", "setting": "rHRSV-Luc", "value": "No histological changes were noticed"}, {"measurement": "interstitial pneumonia after infection by RSV, lung histology", "setting": "rHRSV-Luc", "value": "no interstitial pneumonia was observed"}]}
{"compound": "Ac-EKINQSLAFIRKSDELLHNV-NH2 (N-terminus and C-terminus assumed) [Peptide 4, reference compound]", "values": [{"measurement": "half-life at 2.9 µM", "setting": "chymotrypsin; 100 mM Tris-HCl pH 8.0, 10 mM CaCl2, 25° C., LC-MS, read-out: t1/2 (min) Chymotrypsin", "value": 4.5, "unit": "min"}, {"measurement": "time to full degradation", "setting": "chymotrypsin; treated with chymotrypsin and trypsin", "value": 10, "unit": "min"}, {"measurement": "half-life", "setting": "[4]", "value": 5, "unit": "min"}]}
{"compound": "Ac-YDPLVFPSDEFDASISQVNEKINQSLAFIRKSDEL-NH2 (N-terminus and C-terminus assumed) [Peptide T108]", "values": [{"measurement": "EC50", "setting": "RSV [5]", "value": 1480, "unit": "nM"}]}
